Test results reported in patent publication US20120245176A1, “NOVEL […] WITH S[…] AS BROAD-[…] INFLUENZA ANTIVIRALS” (priority 2010, published 2012).
pEC50: −log10 of the molar value. Read-outs that look alike come from different tables or passages of the source.

Experiments:
[1] = Human Liver Microsomal Stability; settings: human liver microsomes
[2] = Mouse Liver Microsomal Stability; settings: mouse liver microsomes
A/H1N1/WSN = assay: Antiviral assay in MDCK cells, viral neuraminidase (MUNANA) readout, A/H1N1/WSN; type: cell-based, influenza A; settings: MOI 0.001, 48 hrs post infection, viral NA activity
A/H1N1/Solomon Islands = assay: Antiviral assay in MDCK cells, viral neuraminidase (MUNANA) readout, A/H1N1/Solomon Islands; type: cell-based, influenza A; settings: viral NA activity
A/H3N2 Brisbane = assay: Antiviral assay in MDCK cells, viral neuraminidase (MUNANA) readout, A/H3N2 Brisbane; type: cell-based, influenza A; settings: viral NA activity
A/H5N1/Duck_MN = assay: microbe, parasite or virus in culture; type: cell-based, influenza virus; settings: read-out: A/H5N1/Duck_MN EC50
A/H5N1/Duck_PA = assay: microbe, parasite or virus in culture; type: cell-based, influenza virus; settings: read-out: A/H5N1/Duck_PA EC50
A/H5N1/Gull_PA = assay: microbe, parasite or virus in culture; type: cell-based, influenza virus; settings: read-out: A/H5N1/Gull_PA EC50
[3] = MOI 0.001, 48 hrs post infection
[4] = Influenza A virus, H1N1, MOI 0.001, 48 hrs post infection
[5] = Influenza A virus, H3N2, MOI 0.001, 48 hrs post infection
[6] = Influenza A virus, H5N1, MDCK, 48 h

Row | SMILES | Human Liver Microsomal Stability (% Remaining after 10 minutes) [1] | Mouse Liver Microsomal Stability (% Remaining after 10 minutes) [2] | pEC50 (A/H1N1/WSN) | pEC50 (A/H1N1/Solomon Islands; [3]) | pEC50 (A/H3N2 Brisbane; [3]) | pEC50 (A/H5N1/Duck_MN) | pEC50 (A/H5N1/Duck_PA) | pEC50 (A/H5N1/Gull_PA) | also measured
1 | Cc1onc(-c2ccccc2Cl)c1C(=O)N1CCN(c2ccc([N+](=O)[O-])cc2F)CC1 [Example 4] | 72% | 86% |  |  |  |  |  |  | 
2 | COc1ccccc1-c1noc(C)c1C(=O)N1CCN(c2ccc([N+](=O)[O-])cc2Cl)CC1 [Example 18] |  |  | > 7.00 | > 6.00 | > 5.00 | > 6.00 | > 6.00 | > 7.00 | 
3 | Cc1onc(-c2ccc(F)cc2)c1C(=O)N1CCN(c2ccc([N+](=O)[O-])cc2Cl)CC1 [Example 27] | 66% | 86% |  |  |  |  |  |  | 
4 | Cc1onc(-c2cccc(Cl)c2)c1C(=O)N1CCN(c2ccc([N+](=O)[O-])cc2Cl)CC1 [Example 28] | 94% | 85% |  |  |  |  |  |  | 
5 | COc1cc(F)ccc1-c1noc(C)c1C(=O)N1CCN(c2ccc([N+](=O)[O-])cc2Cl)CC1 [Example 29] | 68% | 28% |  |  |  |  |  |  | 
6 | COc1ccc(-c2noc(C)c2C(=O)N2CCN(c3ccc([N+](=O)[O-])cc3Cl)CC2)c(Cl)c1 [Example 31] |  |  | > 7.00 | > 6.00 | < 5.00 | > 6.00 | > 6.00 | > 7.00 | 
7 | COc1ncccc1-c1noc(C)c1C(=O)N1CCN(c2ccc([N+](=O)[O-])cc2Cl)CC1 [Example 45] | 56% | 33% |  |  |  |  |  |  | 
8 | Cc1onc(-c2cccnc2Cl)c1C(=O)N1CCN(c2ccc([N+](=O)[O-])cc2Cl)CC1 [Example 61] | 50% | 18% | > 7.00 | > 5.00 | < 5.00 | > 6.00 | > 6.00 | > 6.00 | 
9 | COc1ccc2ccccc2c1-c1noc(C)c1C(=O)N1CCN(c2ccc([N+](=O)[O-])cc2Cl)CC1 [Example 63] |  |  | > 7.00 | > 6.00 | < 5.00 | > 6.00 | > 6.00 | > 7.00 | 
10 | Cc1[nH]nc(-c2ccccc2Cl)c1C(=O)N1CCN(c2ccc([N+](=O)[O-])cc2Cl)CC1 [Example 72] | 78% | 61% | > 6.00 | < 5.00 | < 5.00 | > 5.00 | > 5.00 | > 6.00 | 
11 | Cc1c[nH]c(-c2ccccc2Cl)c1C(=O)N1CCN(c2ccc([N+](=O)[O-])cc2Cl)CC1 [Example 75, (4-(2-chloro-4-nitrophenyl)piperazin-1-yl)(2-(2-chlorophenyl)-4-methyl-1H-pyrrol-3-yl)methanone] |  |  |  |  |  |  |  |  | pEC50 (A/H1N1/WSN; Influenza A virus): > 7.00; pEC50 (A/H1N1/Solomon Islands; [4]): > 5.00; pEC50 (A/H3N2 Brisbane; [5]): < 5.00; pEC50 (A/H5N1/Duck_MN; [6]): > 6.00; pEC50 (A/H5N1/Duck_PA; [6]): > 6.00; pEC50 (A/H5N1/Gull_PA; [6]): > 7.00
12 | Cc1cnn(-c2ccccc2Cl)c1C(=O)N1CCN(c2ccc([N+](=O)[O-])cc2Cl)CC1 [Example 77] |  |  | > 6.00 | < 5.00 | < 5.00 | > 5.00 | > 5.00 | > 6.00 | 
13 | COc1ccccc1-c1n[nH]c(C)c1C(=O)N1CCN(c2ccc([N+](=O)[O-])cc2Cl)CC1 [Example 80] | 72% | 65% | > 5.00 | > 5.00 | < 5.00 | > 5.00 | > 5.00 | > 6.00 | 
14 | COc1ccccc1-c1nnn(C)c1C(=O)N1CCN(c2ccc([N+](=O)[O-])cc2Cl)CC1 [Example 81] | 73% | 45% | > 7.00 | > 5.00 | < 5.00 | > 6.00 | > 6.00 | > 7.00 | 
15 | COc1ccccc1-c1ncn(C)c1C(=O)N1CCN(c2ccc([N+](=O)[O-])cc2Cl)CC1 [Example 82] | 45% | 43% | > 6.00 | < 5.00 | < 5.00 | > 5.00 | > 5.00 | > 6.00 | 
16 | COc1ccccc1-c1n[nH]c(C)c1C(=O)N1CCN(c2ncc([N+](=O)[O-])cc2Cl)CC1 [Example 83] | 52% | 16% |  |  |  |  |  |  | 
17 | COc1ccccc1-c1nnn(C)c1C(=O)N1CCN(c2ncc([N+](=O)[O-])cc2Cl)CC1 [Example 86] |  |  | > 6.00 | > 5.00 | < 5.00 | > 5.00 | > 5.00 | > 6.00 | 
18 | Cc1nnn(-c2ccccc2Cl)c1C(=O)N1CCN(c2ccc([N+](=O)[O-])cc2Cl)CC1 [Example 88] | 47% | 23% | > 6.00 | > 5.00 | < 5.00 | > 5.00 | > 5.00 | > 6.00 | 
19 | COc1ccccc1-c1noc(C)c1C(=O)N1CCN(c2ncc(Cl)cc2Br)CC1 [Example 129] |  |  | > 6.00 | > 5.00 | > 5.00 | > 5.00 | > 5.00 | > 6.00 | 
20 | Cc1cc(Br)cnc1N1CCN(C(=O)c2c(-c3ccccc3Cl)noc2C)CC1 [Example 132, (4-(5-bromo-3-methylpyridin-2-yl)piperazin-1-yl)(3-(2-chlorophenyl)-5-methylisoxazol-4-yl)methanone] |  |  |  |  |  |  |  |  | pEC50 (A/H1N1/WSN; Influenza A virus): > 6.00; pEC50 (A/H1N1/Solomon Islands; [4]): > 5.00; pEC50 (A/H3N2 Brisbane; [5]): < 5.00; pEC50 (A/H5N1/Duck_MN; [6]): < 5.00; pEC50 (A/H5N1/Duck_PA; [6]): < 5.00; pEC50 (A/H5N1/Gull_PA; [6]): < 5.00
21 | Cc1c[nH]c(-c2ccccc2Cl)c1C(=O)N1CCN(c2ncc(Cl)cc2Cl)CC1 [Example 133] |  |  | > 6.00 | > 5.00 | > 5.00 | < 5.00 | < 5.00 | > 5.00 | 
22 | Cc1onc(-c2ccccc2O)c1C(=O)N1CCN(c2ncc(Cl)cc2Cl)CC1 [Example 142, (4-(3,5-dichloropyridin-2-yl)piperazin-1-yl)(3-(2-hydroxyphenyl)-5-methylisoxazol-4-yl)methanone] | 80% | 34% |  |  |  |  |  |  | 
23 | Cc1onc(-c2ccccc2C(N)=O)c1C(=O)N1CCN(c2ccc([N+](=O)[O-])cc2Cl)CC1 [Example 155, 2-(4-(4-(2-chloro-4-nitrophenyl)piperazine-1-carbonyl)-5-methylisoxazol-3-yl)benzamide] | 80% | 61% |  |  |  |  |  |  | 
24 | COc1ccc(N)cc1-c1noc(C)c1C(=O)N1CCN(c2ncc(Cl)cc2Cl)CC1 [Example 159, (3-(5-amino-2-methoxyphenyl)-5-methylisoxazol-4-yl)(4-(3,5-dichloropyridin-2-yl)piperazin-1-yl)methanone] | 62% | 36% |  |  |  |  |  |  | 
25 | COc1ccc(NS(C)(=O)=O)cc1-c1noc(C)c1C(=O)N1CCN(c2ncc(Cl)cc2Cl)CC1 [Example 161, N-(3-(4-(4-(3,5-dichloropyridin-2-yl)piperazine-1-carbonyl)-5-methylisoxazol-3-yl)-4-methoxyphenyl)methanesulfonamide] | 70% | 8% |  |  |  |  |  |  | 
26 | COc1ccc(NS(C)(=O)=O)cc1-c1noc(C)c1C(=O)N1CCN(c2ccc([N+](=O)[O-])cc2Cl)CC1 [Example 163] | 75% | 49% |  |  |  |  |  |  | 
27 | COc1ccc(NC(C)=O)cc1-c1noc(C)c1C(=O)N1CCN(c2ccc([N+](=O)[O-])cc2Cl)CC1 [Example 165] |  |  | > 6.00 | > 6.00 | < 5.00 | > 5.00 | > 5.00 | > 6.00 | 
28 | Cc1onc(-c2ccccc2)c1C(=O)N1CCN(c2ccc([N+](=O)[O-])cc2Cl)CC1 [reference compound] | 40% | 20% |  |  |  |  |  |  | 
29 | Cc1onc(-c2ccccc2Cl)c1C(=O)N1CCN(c2ccc([N+](=O)[O-])cc2Cl)CC1 [reference compound] | 6% | 0% |  |  |  |  |  |  | 
